Experiment [1] has as its target WRN (BV08), human Werner helicase (Uniprot Q14191, amino acids 517-1235 with L1074F point mutation) (Homo sapiens (Human), UniProt Q14191, L1074F). Put plainly: WRN (BV08) ADP-Glo assay. It counts as biochemical. Particulars: class symbols A-E, read-out: ADP-Glo_hWRN_IC50. As for the experimental part:
Bovine skin gelatin (BSG), dimethyl sulfoxide (DMSO), Pluronic F-127 and tris(2-carboxyethyl)phosphine hydrochloride solution (TCEP) were purchased from Sigma-Aldrich (St. Louis, MO) at the highest level of purity possible. […] DNA strands were annealed by heating to 95° C. for 5 minutes followed by slow cooling to room temperature. Compounds in 100% DMSO (0.1 μl) were spotted into a 384-well white polystyrene Optiplate-384 (Perkin Elmer; Waltham, MA) assay plate using a LabCyte Echo 550 (Agilent; Santa Clara, CA). DMSO (0.1 μl) was added to columns 12, rows A-H and column 24, rows I-P for the maximum signal control. […] Compounds/DMSO were preincubated for 15 minutes at 25° C. with 5 μl 2×WRN (BV08), prepared as described below, in assay buffer containing 20 mM Bicine (pH=7.5), 1 mM MgCl2, 10 mM KCl, 0.1% Pluronic F-127, 0.005% BSG, 1 mM TCEP. The reaction was initiated by the addition of 5 μl 2× substrate mixture in assay buffer and incubated for 60 minutes at 25° C. The final concentrations of the assay components were 0.15 nM WRN, 5 μM ATP, and 0.1 nM DNA duplex. The final DMSO concentration was 1% and the reference compound concentration (NSC-617145) used for the minimal signal control was 20 μM. The reaction was stopped by the addition of the ADP-Glo Kit components (Promega; Madison, WI) as directed and the relative luminescence units (RLU) were read on an Envision 2104 (Perkin Elmer; Waltham, MA). % inhibition calculation:
[formula] • Where RLU=relative luminescence units, sample=signal in sample well, and MIN and MAX are the respective minimum and maximum signal controls.
[formula] • Where top and bottom are normally allowed to float but may be fixed at 100 or 0 respectively in a 3-parameter fit. Y is the % inhibition and X is the compound concentration.
Molecular Biology and virus production. […] The baculovirus from the expression plasmid WRN—BV08 was generated from transfection and amplification following the manufacturer's instructions.
Sf9 cells grown in SF900II media were infected with 1:200 WRN—BV08 P2 virus and incubated for protein expression for 72 h at 27° C. The WRN protein was purified using the following protocol. The cell pellets were thawed and resuspended in buffer A (50 mM Tris, pH 7.5, 500 mM NaCl, 1 mM TCEP, 10% Glycerol) supplemented with 0.5% CHAPS, 1 mM PMSF, 1 μg/ml Leupeptin, 1 μg/ml Pepstatin, and the Pierce Universal Nuclease and cocktail tablet. Cleared lysates were loaded onto a Ni Sepharose™ excel column and washed with buffer A and bound protein was eluted with buffer A supplemented with 300 mM imidazole. The eluted protein was dialyzed against buffer A and digested by His-tagged TEV (1:5 ratio) overnight at 4° C. ZnCl2 was added into the sample at final 15 μM before loading onto a second Ni Sepharose™ excel column. Untagged WRN protein was eluted from the column with buffer A supplemented with 20 mM imidazole, dialyzed overnight into buffer B (50 mM Tris, pH 7.5, 1 mM TCEP, 10% Glycerol) supplemented with 150 mM NaCl and loaded onto a Heparin column. Proteins were eluted with a step gradient of buffer B supplemented with 150 mM, 200 mM, 300 mM and 500 mM NaCl. WRN containing fractions were pooled and concentrated prior to loading on to size exclusion chromatography using a HiLoad 16/600 Superdex™ 200 pg column (GE Healthcare) in buffer C (20 mM HTEPES, pH 7.5, 250 mM NaCl, 0.25 mM TCEP, […]).
(ADP-Glo first removes unused ATP, then detects ADP through luciferase.)

The test system of experiment [2] is p21 induction in HCT116 cells. Put plainly: p21 induction in HCT116 cells. It counts as cell-based. Particulars: Homo sapiens, HCT-116, 24 h, read-out: P21_EC50. As for the experimental part: The colon carcinoma cell line HCT116 was obtained from ATCC and cultured in growth medium consisting of Mccoy's 5A Medium (Gibco 16600108) supplemented with 10% FBS (Transgene FS201-02) and 100 units/mL penicillin-streptomycin (Gibco 15140122) and maintained at 37° C. under 5% CO2. On the day of seeding, 2,000 cells in 30 μL of culture media were plated per well to Poly-D-Lysine 384 Well Black Clear Plates (Biocoat 356663) and incubated overnight at 37° C. under 5% CO2. The following day, compounds were serially diluted in DMSO for a total of 11 test concentrations. […] Next, 150 nL of diluted compound was added in duplicate to the assay plate, using an Echo 655 (Labcyte). The plate was centrifuged at 500 RPM for 1 min and then incubated at 37° C. under 5% CO2 for 24 h. After 24 h, medium was removed, and cells were fixed by adding 40 μL of 4% paraformaldehyde solution to each well and incubated for 20 min at room temperature. The plate was then washed 4 times with 100 μL per well of wash buffer (PBS with 0.1% Tween-20) using a microplate washer. Next, 30 μL of ice-cold methanol was added to each well and the plate was incubated at −20° C. for 10 min. The plate was washed 4 times with 100 μL per well of wash buffer by a microplate washer, then 30 μL per well of blocking buffer (Intercept PBS blocking buffer (LI-COR 927-70001) with 0.05% Tween-20) was added and the plate was incubated at room temperature with shaking for 2 h. Next, to each test well, 20 μL of primary antibody solution (p21 Waf1/CIP (12D1) RabbitmAb (Cell Signaling Technologies 2947) diluted 1:1000 and GAPDH (D4C6R) Mouse mAb (Cell Signaling Technologies 97166) diluted 1:2000 in blocking buffer) was added and the plate was placed at 4° C., overnight. The following day, the plate was washed 5 times with 100 μL per well of wash buffer using a microplate washer for 5 min. 20 μL per well of secondary antibody (IRDye 680CW Goat anti-Mouse IgG (H+L) (LI-COR 926-68070) diluted 1: 2000 in Blocking Buffer and IRDye 800CW Goat anti-Rabbit IgG (H+L) (LI-COR 926-32211) diluted 1: 2000 in Blocking Buffer) was then added and the plate was stored for 2 h in the dark at room temperature with shaking. The plate was then washed 4 times with 100 μL per well of wash buffer again using a microplate washer. Finally, the p21 signal and the GAPDH signal were quantified using a LI-COR Odyssey CLx Imager machine reading at 800 nm and 700 nm, respectively. Each plate contained DMSO control (low control) and an internal reference WRN inhibitor (high control) respectively. […] EC50 values for each compound were generated after non-linear regression curve fitting using commercially available software.

[3] abbreviates: HCT116 cells, 24 h compound incubation.

Where two headings read alike, the source gives them in different places.

WRN (BV08), human Werner helicase (Uniprot Q14191, amino acids 517-1235 with L1074F point mutation), sequence (Q14191 other isoform, or with tags, fused parts or gaps L1074F (already in the parent)): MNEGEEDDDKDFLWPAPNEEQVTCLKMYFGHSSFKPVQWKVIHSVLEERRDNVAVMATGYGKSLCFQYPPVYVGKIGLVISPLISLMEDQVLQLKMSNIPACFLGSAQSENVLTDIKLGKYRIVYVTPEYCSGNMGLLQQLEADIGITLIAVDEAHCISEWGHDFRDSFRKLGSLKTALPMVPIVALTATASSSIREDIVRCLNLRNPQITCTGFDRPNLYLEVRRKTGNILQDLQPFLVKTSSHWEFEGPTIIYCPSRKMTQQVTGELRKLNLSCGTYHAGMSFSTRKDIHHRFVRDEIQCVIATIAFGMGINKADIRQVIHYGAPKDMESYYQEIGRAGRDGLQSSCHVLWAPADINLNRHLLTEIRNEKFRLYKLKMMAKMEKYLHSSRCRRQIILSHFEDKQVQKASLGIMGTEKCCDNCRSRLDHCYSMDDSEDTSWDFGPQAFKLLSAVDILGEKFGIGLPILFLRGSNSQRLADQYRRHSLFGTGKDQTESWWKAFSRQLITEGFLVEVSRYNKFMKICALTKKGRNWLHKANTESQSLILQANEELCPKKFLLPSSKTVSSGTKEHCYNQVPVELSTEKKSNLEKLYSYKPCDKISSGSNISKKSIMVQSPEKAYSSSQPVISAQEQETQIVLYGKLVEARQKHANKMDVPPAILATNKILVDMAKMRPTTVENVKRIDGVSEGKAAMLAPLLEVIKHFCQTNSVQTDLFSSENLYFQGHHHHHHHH

Take `CCc1c(N2CCN(C(=O)c3ncnc(C)c3O)C3COCC32)c(=O)c2nc(N(C)C)cnc2n1CC(=O)Nc1ccc(C(F)(F)F)cc1Cl` (single isomer, unassigned) [I-295, N-(2-chloro-4-(trifluoromethyl)phenyl)-2-(2-(dimethylamino)-6-ethyl-7-(4-(5-hydroxy-6-methylpyrimidine-4-carbonyl)hexahydrofuro[3,4-b]pyrazin-1(2H)-yl)-8-oxopyrido[2,3-b]pyrazin-5(8H)-yl)acetamide]: the IC50 in experiment [1] was in the range of 5 to 50 nM.
With `CCc1c(N2CCN(C(=O)c3ncnc(C)c3O)C[C@@H]2C)c(=O)c2nc(N3CC[C@@H]4C[C@@H]43)cnc2n1CC(=O)Nc1ccc(C(F)(F)F)cc1Cl` (single isomer, unassigned) [I-193], the IC50 in experiment [1] was not above 5 nM.
For `CCc1c(N2CCN(C(=O)c3ncnc(C)c3O)[C@H]3CC[C@@H]32)c(=O)c2nc(N(C)C)cnc2n1CC(=O)Nc1ccc(C(F)(F)F)cc1Cl` (single isomer, unassigned) [I-40, N-(2-chloro-4-(trifluoromethyl)phenyl)-2-(2-(dimethylamino)-6-ethyl-7-(−5-(5-hydroxy-6-methylpyrimidine-4-carbonyl)-2,5-diazabicyclo[4.2.0]octan-2-yl)-8-oxopyrido[2,3-b]pyrazin-5(8H)-yl)acetamide], the EC50 in experiment [2] (setting [3]) was less than 500 nM.
`CCc1c(N2CCN(C(=O)c3ncnc(C)c3O)[C@H]3CC[C@H]32)c(=O)c2nc(N(C)C)cnc2n1CC(=O)Nc1ccc(C(F)(F)F)cc1Cl` (racemic) [I-106, rac-N-(2-chloro-4-(trifluoromethyl)phenyl)-2-(2-(dimethylamino)-6-ethyl-7-(5-(5-hydroxy-6-methylpyrimidine-4-carbonyl)-2,5-diazabicyclo[4.2.0]octan-2-yl)-8-oxopyrido[2,3-b]pyrazin-5(8H)-yl)acetamide]: the EC50 in experiment [2] (setting [3]) was 500 to 2000 nM.
`[2H]C([2H])([2H])N(c1cnc2c(n1)c(=O)c(N1CCN(C(=O)c3ncnc(C)c3O)[C@H]3CC[C@@H]31)c(CC)n2CC(=O)Nc1ccc(C(F)(F)F)cc1Cl)C([2H])([2H])[2H]` [I-101, 2-(2-(bis(methyl-d3)amino)-6-ethyl-7-((1S,6S)-5-(5-hydroxy-6-methylpyrimidine-4-carbonyl)-2,5-diazabicyclo[4.2.0]octan-2-yl)-8-oxopyrido[2,3-b]pyrazin-5(8H)-yl)-N-(2-chloro-4-(trifluoromethyl)phenyl)acetamide]: in experiment [2], the EC50 was less than 500 nM.
Regarding `CCc1c(N2CCN(C(=O)c3ncnc(C)c3O)C3CCC32)c(=O)c2nc(N(C)C)cnc2n1CC(=O)Nc1ccc(C(F)(F)F)cc1Cl` (racemic) [I-34, rac-N-(2-chloro-4-(trifluoromethyl)phenyl)-2-(2-(dimethylamino)-6-ethyl-7-(5-(5-hydroxy-6-methylpyrimidine-4-carbonyl)-2,5-diazabicyclo[4.2.0]octan-2-yl)-8-oxopyrido[2,3-b]pyrazin-5(8H)-yl)acetamide], the EC50 in experiment [2] (setting [3]) is less than 500 nM.
As to `C#C[C@H]1CN(C(=O)c2ncnc(C)c2O)CCN1c1c(CC)n(CC(=O)Nc2ccc(C(F)(F)F)cc2Cl)c2ncc(N(C)C)nc2c1=O` [I-260, N-[2-chloro-4-(trifluoromethyl)phenyl]-2-[2-(dimethylamino)-6-ethyl-7-[(2S)-2-ethynyl-4-(5-hydroxy-6-methylpyrimidine-4-carbonyl)piperazin-1-yl]-8-oxo-5H,8H-pyrido[2,3-b]pyrazin-5-yl]acetamide], in experiment [1], the IC50 lay in the range of 5 to 50 nM.
With `CCc1c(N2CCN(C(=O)c3ncnc(C)c3O)[C@@H](C)C2)c(=O)c2nc(N(C)C)cnc2n1CC(=O)Nc1ccc(C(F)(F)F)cc1Cl` [I-173, N-[2-chloro-4-(trifluoromethyl)phenyl]-2-[2-(dimethylamino)-6-ethyl-7-[(3S)-4-(5-hydroxy-6-methylpyrimidine-4-carbonyl)-3-methylpiperazin-1-yl]-8-oxo-5H,8H-pyrido[2,3-b]pyrazin-5-yl]acetamide], in experiment [1], the IC50 lay within 5 to 50 nM.
The same measure, in the same setting: to `CCc1c(N2C[C@H]3CC[C@@H]2CN3C(=O)c2ncnc(C)c2O)c(=O)c2nc(N(C)C)cnc2n1CC(=O)Nc1ccc(C(F)(F)F)cc1Cl` (single isomer, unassigned) [I-248, N-(2-chloro-4-(trifluoromethyl)phenyl)-2-(2-(dimethylamino)-6-ethyl-7-(5-(5-hydroxy-6-methylpyrimidine-4-carbonyl)-2,5-diazabicyclo[2.2.2]octan-2-yl)-8-oxopyrido[2,3-b]pyrazin-5(8H)-yl)acetamide] belongs 50 to 100 nM.
For the molecule `CCc1c(N2CCN(C(=O)c3ncnc(C)c3O)[C@@H]3CC[C@H]32)c(=O)c2nc(N(C)C)cnc2n1CC(=O)Nc1ccc(C(F)(F)F)cc1Cl` (single isomer, unassigned) [I-39, N-(2-chloro-4-(trifluoromethyl)phenyl)-2-(2-(dimethylamino)-6-ethyl-7-(−5-(5-hydroxy-6-methylpyrimidine-4-carbonyl)-2,5-diazabicyclo[4.2.0]octan-2-yl)-8-oxopyrido[2,3-b]pyrazin-5(8H)-yl)acetamide], the EC50 in experiment [2] (setting [3]) fell in the range of 2000 to 5000 nM.
`CCc1c(N2CCN(C(=O)c3ncnc(C)c3O)[C@H](C)[C@@H]2C)c(=O)c2nc(N(C)C)cnc2n1CC(=O)Nc1ccc(C(F)(F)F)cc1Cl` (single isomer, unassigned) [I-198, N-(2-chloro-4-(trifluoromethyl)phenyl)-2-(2-(dimethylamino)-6-ethyl-7-(4-(5-hydroxy-6-methylpyrimidine-4-carbonyl)-2,3-dimethylpiperazin-1-yl)-8-oxopyrido[2,3-b]pyrazin-5(8H)-yl)acetamide]: the IC50 in experiment [1] lay within 5 to 50 nM.
